test system: Uncinula necator; assay: Grape Powdery Mildew (UNCINE) disease control; assay type: in vivo; conditions: 100 ppm, 1 Day Protectant
Experimental: Technical grades of materials were dissolved in acetone, which were then mixed with nine volumes of water containing 110 ppm Triton X-100. The fungicide solutions were applied onto wheat seedlings using an automated booth sprayer to run-off. All sprayed plants were allowed to air dry prior to further handling. All fungicides were evaluated using the aforementioned method for their activity vs. all target diseases. Wheat leaf blotch and brown rust activity were also evaluated using track spray applications, in which case the fungicides were formulated as EC formulations, containing 0.1% Trycol 5941 in the spray solutions. Wheat plants (variety Yuma) were grown from seed in a greenhouse in 50% mineral soil/50% soil-less Metro mix until the first leaf was fully emerged, with 7-10 seedlings per pot. These plants were inoculated with an aqueous spore suspension of Septoria tritici either prior to or after fungicide treatments. After inoculation the plants were kept in 100% relative humidity (one day in a dark dew chamber followed by two to three days in a lighted dew chamber at 20° C.) to permit spores to germinate and infect the leaf. The plants were then transferred to a greenhouse set at 20° C. for disease to develop. When disease symptoms were fully expressed on the 1st leaves of untreated plants, infection levels were assessed on a scale of 0 to 100 percent disease severity. Percent disease control was calculated using the ratio of disease severity on treated plants relative to untreated plants. Grape seedlings (variety Carignane) were grown in soil-less Metro mix, with one plant per pot, and used in the test when approximately one month old. Plants were inoculated 24 hr after fungicide treatment by shaking spores from infected leaves over test plants. Plants were maintained in a greenhouse set at 20° C. until disease was fully developed. Fungicide formulation, application and disease assessment on the sprayed leaves followed the procedures as described in the Example A.

SMILES	Disease Control UNCINE 1 DP
COc1ccnc(C(=O)N[C@H]2CCC[C@H](Cc3ccc(F)cc3)[C@@H](OCC3CC3)[C@H](C)OC2=O)c1OCOC(C)=O [Compound F98]	A (80-100)

same assay, conditions: Erysiphe necator, topical, 24 h, 1 Day Protectant, read-out: Disease Control UNCINE 1 DP

SMILES	pest or weed control at 100 ppm [%]
CCCO[C@@H]1[C@@H](CCC(C)C)CCC[C@H](NC(=O)c2nccc(OC)c2OC(C)=O)C(=O)O[C@H]1C [Compound F64]	80 to 100
CCOCC(=O)OCOc1c(OC)ccnc1C(=O)N[C@H]1CCC[C@H](Cc2ccc(F)cc2)[C@@H](OCC2CC2)[C@H](C)OC1=O [Compound F164]	80 to 100
CCCO[C@@H]1[C@@H](Cc2ccccc2)CCC[C@H](NC(=O)c2nccc(OC)c2OC(=O)CCOC)C(=O)O[C@H]1C [Compound F198]	80 to 100
CCO[C@@H]1[C@@H](Cc2ccccc2)CCC[C@H](NC(=O)c2nccc(OC)c2OC(C)=O)C(=O)O[C@H]1C [Compound F87]	80 to 100
CCCO[C@@H]1[C@@H](Cc2ccccc2)CCC[C@H](NC(=O)c2nccc(OC)c2OC(C)=O)C(=O)O[C@H]1C [Compound F88]	80 to 100
CCCO[C@@H]1[C@@H](CCC(C)C)CCC[C@H](NC(=O)c2nccc(OC)c2OCOC(C)=O)C(=O)O[C@H]1C [Compound F92]	80 to 100
CCCO[C@@H]1[C@@H](Cc2ccccc2)CCC[C@H](NC(=O)c2nccc(OC)c2OCOC(=O)COCC)C(=O)O[C@H]1C [Compound F174]	80 to 100
CCOCC(=O)OCOc1c(OC)ccnc1C(=O)N[C@H]1CCC[C@H](CCOC)[C@@H](Oc2ccccc2)[C@H](C)OC1=O [Compound F183]	80 to 100

test system: Erysiphe cichoracearum; assay: Powdery Mildew of Cucumber (ERYSCI) disease control; assay type: in vivo; conditions: 100 ppm, 1 Day Protectant
Experimental: Technical grades of materials were dissolved in acetone, which were then mixed with nine volumes of water containing 110 ppm Triton X-100. The fungicide solutions were applied onto wheat seedlings using an automated booth sprayer to run-off. All sprayed plants were allowed to air dry prior to further handling. All fungicides were evaluated using the aforementioned method for their activity vs. all target diseases. Wheat leaf blotch and brown rust activity were also evaluated using track spray applications, in which case the fungicides were formulated as EC formulations, containing 0.1% Trycol 5941 in the spray solutions. Wheat plants (variety Yuma) were grown from seed in a greenhouse in 50% mineral soil/50% soil-less Metro mix until the first leaf was fully emerged, with 7-10 seedlings per pot. These plants were inoculated with an aqueous spore suspension of Septoria tritici either prior to or after fungicide treatments. After inoculation the plants were kept in 100% relative humidity (one day in a dark dew chamber followed by two to three days in a lighted dew chamber at 20° C.) to permit spores to germinate and infect the leaf. The plants were then transferred to a greenhouse set at 20° C. for disease to develop. When disease symptoms were fully expressed on the 1st leaves of untreated plants, infection levels were assessed on a scale of 0 to 100 percent disease severity. Percent disease control was calculated using the ratio of disease severity on treated plants relative to untreated plants. Cucumber seedlings (variety Bush Pickle) were grown in soil-less Metro mix, with one plant per pot, and used in the test when 12 to 14 days old. Plants were inoculated with a spore suspension 24 hr following fungicide treatments. After inoculation the plants remained in the greenhouse set at 20° C. until disease was fully expressed. Fungicide formulation, application and disease assessment on the sprayed leaves followed the procedures as described in the Example A.

SMILES	Disease Control ERYSCI 1 DP
COc1ccnc(C(=O)N[C@H]2CCC[C@H](Cc3ccc(F)cc3)[C@@H](OCC3CC3)[C@H](C)OC2=O)c1OCOC(C)=O [Compound F98]	A (80-100)

same assay, conditions: Golovinomyces cichoracearum, topical, 24 h, 1 Day Protectant, read-out: Disease Control ERYSCI 1 DP

SMILES	pest or weed control at 100 ppm [%]
CCCO[C@@H]1[C@@H](CCC(C)C)CCC[C@H](NC(=O)c2nccc(OC)c2OC(C)=O)C(=O)O[C@H]1C [Compound F64]	80 to 100
CCOCC(=O)OCOc1c(OC)ccnc1C(=O)N[C@H]1CCC[C@H](Cc2ccc(F)cc2)[C@@H](OCC2CC2)[C@H](C)OC1=O [Compound F164]	80 to 100
CCCO[C@@H]1[C@@H](Cc2ccccc2)CCC[C@H](NC(=O)c2nccc(OC)c2OC(=O)CCOC)C(=O)O[C@H]1C [Compound F198]	80 to 100
CCO[C@@H]1[C@@H](Cc2ccccc2)CCC[C@H](NC(=O)c2nccc(OC)c2OC(C)=O)C(=O)O[C@H]1C [Compound F87]	0 to 80
CCCO[C@@H]1[C@@H](Cc2ccccc2)CCC[C@H](NC(=O)c2nccc(OC)c2OC(C)=O)C(=O)O[C@H]1C [Compound F88]	80 to 100
CCCO[C@@H]1[C@@H](CCC(C)C)CCC[C@H](NC(=O)c2nccc(OC)c2OCOC(C)=O)C(=O)O[C@H]1C [Compound F92]	80 to 100
CCCO[C@@H]1[C@@H](Cc2ccccc2)CCC[C@H](NC(=O)c2nccc(OC)c2OCOC(=O)COCC)C(=O)O[C@H]1C [Compound F174]	80 to 100
CCOCC(=O)OCOc1c(OC)ccnc1C(=O)N[C@H]1CCC[C@H](CCOC)[C@@H](Oc2ccccc2)[C@H](C)OC1=O [Compound F183]	0 to 80

test system: Blumeria graminis f. sp. hordei; Synonym: Erysiphe graminis f. sp. hordei; assay: Barley Powdery Mildew (ERYSGH) disease control; assay type: in vivo; conditions: 100 ppm, 1 Day Protectant
Experimental: Technical grades of materials were dissolved in acetone, which were then mixed with nine volumes of water containing 110 ppm Triton X-100. The fungicide solutions were applied onto wheat seedlings using an automated booth sprayer to run-off. All sprayed plants were allowed to air dry prior to further handling. All fungicides were evaluated using the aforementioned method for their activity vs. all target diseases. Wheat leaf blotch and brown rust activity were also evaluated using track spray applications, in which case the fungicides were formulated as EC formulations, containing 0.1% Trycol 5941 in the spray solutions. Wheat plants (variety Yuma) were grown from seed in a greenhouse in 50% mineral soil/50% soil-less Metro mix until the first leaf was fully emerged, with 7-10 seedlings per pot. These plants were inoculated with an aqueous spore suspension of Septoria tritici either prior to or after fungicide treatments. After inoculation the plants were kept in 100% relative humidity (one day in a dark dew chamber followed by two to three days in a lighted dew chamber at 20° C.) to permit spores to germinate and infect the leaf. The plants were then transferred to a greenhouse set at 20° C. for disease to develop. When disease symptoms were fully expressed on the 1st leaves of untreated plants, infection levels were assessed on a scale of 0 to 100 percent disease severity. Percent disease control was calculated using the ratio of disease severity on treated plants relative to untreated plants. Barley seedlings (variety Harrington) were propagated in soil-less Metro mix, with each pot having 8 to 12 plants, and used in the test when first leaf was fully emerged. Test plants were inoculated by dusting with infected stock plants 24 hr after fungicide treatments. After inoculation the plants were kept in a greenhouse set at 20° C. for disease to develop. Fungicide formulation, application and disease assessment on the sprayed leaves followed the procedures as described in the Example A.

SMILES	Disease Control ERYSGH 1 DP
COc1ccnc(C(=O)N[C@H]2CCC[C@H](Cc3ccc(F)cc3)[C@@H](OCC3CC3)[C@H](C)OC2=O)c1OCOC(C)=O [Compound F98]	A (80-100)

same assay, conditions: Blumeria graminis, 24 h, 1 Day Protectant, read-out: Disease Control ERYSGH 1 DP

SMILES	pest or weed control at 100 ppm [%]
CCCO[C@@H]1[C@@H](CCC(C)C)CCC[C@H](NC(=O)c2nccc(OC)c2OC(C)=O)C(=O)O[C@H]1C [Compound F64]	80 to 100
CCOCC(=O)OCOc1c(OC)ccnc1C(=O)N[C@H]1CCC[C@H](Cc2ccc(F)cc2)[C@@H](OCC2CC2)[C@H](C)OC1=O [Compound F164]	80 to 100
CCCO[C@@H]1[C@@H](Cc2ccccc2)CCC[C@H](NC(=O)c2nccc(OC)c2OC(=O)CCOC)C(=O)O[C@H]1C [Compound F198]	80 to 100
CCO[C@@H]1[C@@H](Cc2ccccc2)CCC[C@H](NC(=O)c2nccc(OC)c2OC(C)=O)C(=O)O[C@H]1C [Compound F87]	80 to 100
CCCO[C@@H]1[C@@H](Cc2ccccc2)CCC[C@H](NC(=O)c2nccc(OC)c2OC(C)=O)C(=O)O[C@H]1C [Compound F88]	80 to 100
CCCO[C@@H]1[C@@H](CCC(C)C)CCC[C@H](NC(=O)c2nccc(OC)c2OCOC(C)=O)C(=O)O[C@H]1C [Compound F92]	0 to 80
CCCO[C@@H]1[C@@H](Cc2ccccc2)CCC[C@H](NC(=O)c2nccc(OC)c2OCOC(=O)COCC)C(=O)O[C@H]1C [Compound F174]	80 to 100
CCOCC(=O)OCOc1c(OC)ccnc1C(=O)N[C@H]1CCC[C@H](CCOC)[C@@H](Oc2ccccc2)[C@H](C)OC1=O [Compound F183]	0 to 80

test system: Glomerella lagenarium; Anamorph: Colletotrichum lagenarium; assay: Cucumber Anthracnose (COLLLA) disease control; assay type: in vivo; conditions: 100 ppm, 1 Day Protectant
Experimental: Technical grades of materials were dissolved in acetone, which were then mixed with nine volumes of water containing 110 ppm Triton X-100. The fungicide solutions were applied onto wheat seedlings using an automated booth sprayer to run-off. All sprayed plants were allowed to air dry prior to further handling. All fungicides were evaluated using the aforementioned method for their activity vs. all target diseases. Wheat leaf blotch and brown rust activity were also evaluated using track spray applications, in which case the fungicides were formulated as EC formulations, containing 0.1% Trycol 5941 in the spray solutions. Wheat plants (variety Yuma) were grown from seed in a greenhouse in 50% mineral soil/50% soil-less Metro mix until the first leaf was fully emerged, with 7-10 seedlings per pot. These plants were inoculated with an aqueous spore suspension of Septoria tritici either prior to or after fungicide treatments. After inoculation the plants were kept in 100% relative humidity (one day in a dark dew chamber followed by two to three days in a lighted dew chamber at 20° C.) to permit spores to germinate and infect the leaf. The plants were then transferred to a greenhouse set at 20° C. for disease to develop. When disease symptoms were fully expressed on the 1st leaves of untreated plants, infection levels were assessed on a scale of 0 to 100 percent disease severity. Percent disease control was calculated using the ratio of disease severity on treated plants relative to untreated plants. Cucumber seedlings (variety Bush Pickle) were propagated in soil-less Metro mix, with each pot having one plant, and used in the test when 12 to 14 days old. Test plants were inoculated with an aqueous spore suspension of Colletotrichum lagenarium 24 hr after fungicide treatments. After inoculation the plants were kept in a dew room at 22° C. with 100% relative humidity for 48 hr to permit spores to germinate and infect the leaf. The plants were then transferred to a growth room set at 22° C. for disease to develop. Fungicide formulation, application and disease assessment on the sprayed leaves followed the procedures as described in the Example A.

SMILES	Disease Control COLLLA 1 DP
COc1ccnc(C(=O)N[C@H]2CCC[C@H](Cc3ccc(F)cc3)[C@@H](OCC3CC3)[C@H](C)OC2=O)c1OCOC(C)=O [Compound F98]	A (80-100)

same assay, conditions: Colletotrichum orbiculare, topical, 24 h, 1 Day Protectant, read-out: Disease Control COLLLA 1 DP

SMILES	pest or weed control at 100 ppm [%]
CCCO[C@@H]1[C@@H](CCC(C)C)CCC[C@H](NC(=O)c2nccc(OC)c2OC(C)=O)C(=O)O[C@H]1C [Compound F64]	80 to 100
CCOCC(=O)OCOc1c(OC)ccnc1C(=O)N[C@H]1CCC[C@H](Cc2ccc(F)cc2)[C@@H](OCC2CC2)[C@H](C)OC1=O [Compound F164]	80 to 100
CCCO[C@@H]1[C@@H](Cc2ccccc2)CCC[C@H](NC(=O)c2nccc(OC)c2OC(=O)CCOC)C(=O)O[C@H]1C [Compound F198]	80 to 100
CCO[C@@H]1[C@@H](Cc2ccccc2)CCC[C@H](NC(=O)c2nccc(OC)c2OC(C)=O)C(=O)O[C@H]1C [Compound F87]	80 to 100
CCCO[C@@H]1[C@@H](Cc2ccccc2)CCC[C@H](NC(=O)c2nccc(OC)c2OC(C)=O)C(=O)O[C@H]1C [Compound F88]	80 to 100
CCCO[C@@H]1[C@@H](CCC(C)C)CCC[C@H](NC(=O)c2nccc(OC)c2OCOC(C)=O)C(=O)O[C@H]1C [Compound F92]	80 to 100
CCCO[C@@H]1[C@@H](Cc2ccccc2)CCC[C@H](NC(=O)c2nccc(OC)c2OCOC(=O)COCC)C(=O)O[C@H]1C [Compound F174]	80 to 100
CCOCC(=O)OCOc1c(OC)ccnc1C(=O)N[C@H]1CCC[C@H](CCOC)[C@@H](Oc2ccccc2)[C@H](C)OC1=O [Compound F183]	80 to 100

Source: patent US9265253B2, “Use of macrocyclic picolinamides as fungicides” (DOW AGROSCIENCES LLC, priority 2013, dated 2016)
